Source: patent US9801917B2, “Composition for improving blood sugar metabolism” (SUNSTAR INC., priority 2013, dated 2017)

Experiments:
[1] = tested on: mouse skeletal myotube cell line (C2C12 cells); test: Measurement of sugar uptake-promoting activity (6-NBDG uptake) using skeletal myotube cells; format: cell-based; conditions: for sugar uptake-promoting activity (in words): 0.01 mass %, compared with extract C
Procedure: Mouse skeletal myoblasts (C2C12 cells) were cultured in high-glucose DMEM (5790), and the cells were seeded and cultured in a black microtiter plate (produced by Falcon) at a concentration of 5000 cells/200 μL/well. The cells differentiated into myotubes were used for this experiment. Extract A and extract C obtained in the above Production Example 1 and adjusted to final concentrations of 0.02% and 0.05% were used as samples (Examples 2-1 to 2-4). A medium without any addition (Comparative Example 2-1) was used as a negative control. A medium containing insulin (10 nM) (Comparative Example 2-2) was used as a positive control.
On the day of the experiment, after the media were replaced with low-glucose DMEM (6047), starvation was performed. The media were then replaced with media containing the samples of Examples 2-1 to 2-4 and Comparative Examples 2-1 to 2-2 dissolved therein, and incubation was performed for 60 minutes. After the treatment, the media were removed and replaced with low-glucose DMEM containing 100 μM of a fluorescently labeled nonhydrolyzable sugar analog, 6-(N-(7-nitrobenz-2-oxa-1,3-diazol-4-yl)amino)-6-deoxyglucose (6-NBDG; produced by Invitrogen) dissolved therein. After the reaction was allowed to proceed for 30 minutes, the medium was removed. After washing with PBS, the fluorescence was measured at 444 nm/538 nm emission using a fluorescent plate reader.
The sugar uptake-promoting activity, in skeletal myotube cells, of each of extract C (Example 3-1) obtained in the above Production Example 1, and fractions A to C and insoluble matter (Example 3-5) obtained in the above Production Example 2 (Examples 3-2 to 3-4) was measured in the same manner as in Test Example 1-2. Further, as in Test Example 1-2, a medium with no addition was used as a negative control (Comparative Example 3-1), and a medium containing insulin (10 nM) (Comparative Example 3-2) was used as a positive control. The samples of Examples 3-1 to 3-5 were adjusted to a final concentration of 0.02 mass %.
The sugar uptake-promoting activity, in skeletal myotube cells, of extract C obtained in the above Production Example 1 (Example 4-1) and seven compounds known to be contained in persimmon leaves (Example 4-2 to 4-8), i.e., kaempferol-3-O-glucoside, quercetin-3-O-glucoside, quercetin-3-O-galactoside, (+)-catechin, epigallocatechin gallate, rutin, and gallic acid was measured in the same manner as in Test Example 1-2. Further, as in Test Example 1-2, a medium with no addition was used as a negative control (Comparative Example 4-1), and a medium with insulin (10 nM) was used as a positive control (Comparative Example 4-2). The samples obtained in Example 4-1 to 4-8 were adjusted to a final concentration of 0.01 mass %.
The sugar uptake-promoting effects of extract C obtained in the above Production Example 1 (Example 5-1), fraction B obtained in the above Production Example 2 (Example 5-2), and fractions F to L (Examples 5-3 to 5-9) obtained in the above Production Example 3 on skeletal myotube cells were measured in the same manner as in Test Example 2. A medium with no addition was used as a negative control (Comparative Example 5-1), and media with insulin (10 nM) (Comparative Example 5-2), with insulin (100 nM) (Comparative Example 5-3), and with AICAR (final concentration: 3 mM) (Comparative Example 5-4) were used as positive controls. The samples of Examples 5-1 to 5-9 were adjusted to a final concentration of 0.02 mass %. […]

AMP kinase = test: Measurement of AMP kinase phosphorylation activity (Western blot pAMPK/tAMPK) in C2C12 cells; format: cell-based, mouse; conditions: Test Example 1-1; positive control, final concentration 2 mM; relative value, negative control = 1
Procedure: Persimmon leaf extracts A to E (powders) that had been dissolved in media to a final concentration of 0.02% were used as samples (Examples 1-1 to 1-5). A medium without any addition was used as a negative control (Comparative Example 1-1). A medium containing AICAR (final concentration: 2 mM) was used as a positive control (Comparative Example 1-2). Subsequently, a mouse skeletal myotube cell line (C2C12 cells) was seeded onto a 6-well cell culture plate and cultured in a DMEM medium containing 10% fetal bovine serum and a 1% antibacterial agent at 37° C., 5% carbon dioxide for 3 days.
When the cells became confluent, the medium was replaced with a DMEM medium containing 1% fetal bovine serum, and the cells were further cultured and fully differentiated. After the medium was again replaced with a fresh medium, the samples of Examples 1-1 to 1-5 and Comparative Examples 1-1 to 1-2 were added, and the cells were cultured at 37° C., 5% carbon dioxide. […]
The cell lysate was sonicated and then centrifuged to obtain a supernatant. […] The protein concentration of each supernatant was measured. […]
Western blotting was performed in the following manner. […] Chemiluminescence was detected using a CCD camera imager (produced by GE Healthcare). The degree of the activity was expressed as a relative value with the value of the negative control being defined as 1.

[2] = Test Example 3, final concentration 0.01 mass %, control = 1.00

## Oc1cc(O)c2c(c1)O[C@H](c1ccc(O)c(O)c1)[C@@H](O)C2 [(+)-catechin]
[1]; [2]
  Relative fluorescence intensity: 1.09

## NC(=O)c1ncn([C@@H]2O[C@H](CO)[C@@H](O)[C@H]2O)c1N [AICAR]
AMP kinase
  pAMPK/tAMPK ratio: 5.60
[1]; Test Example 4, positive control 3 mM, control = 1.00
  Relative fluorescence intensity: 1.96

## O=C(O[C@@H]1Cc2c(O)cc(O)cc2O[C@@H]1c1cc(O)c(O)c(O)c1)c1cc(O)c(O)c(O)c1 [Epigallocatechin gallate, epigallocatechin gallate]
[1]; Test Example 3
  sugar uptake-promoting activity (in words): as high as Example 4-1
[1]; [2]
  Relative fluorescence intensity: 1.70

## O=C(O)c1cc(O)c(O)c(O)c1 [Gallic acid, gallic acid]
[1]; Test Example 3
  sugar uptake-promoting activity (in words): as high as Example 4-1
[1]; [2]
  Relative fluorescence intensity: 1.69

## O=c1c(O[C@@H]2O[C@H](CO)[C@@H](O)[C@H](O)[C@H]2O)c(-c2ccc(O)cc2)oc2cc(O)cc(O)c12 [Kaempferol-3-glucoside, kaempferol-3-O-glucoside]
[1]; [2]
  Relative fluorescence intensity: 0.91

## O=c1c(O[C@@H]2O[C@H](CO)[C@H](O)[C@H](O)[C@H]2O)c(-c2ccc(O)c(O)c2)oc2cc(O)cc(O)c12 [Quercetin-3-galactoside, quercetin-3-O-galactoside]
[1]; [2]
  Relative fluorescence intensity: 0.70

## O=c1c(O[C@@H]2O[C@H](CO)[C@@H](O)[C@H](O)[C@H]2O)c(-c2ccc(O)c(O)c2)oc2cc(O)cc(O)c12 [Quercetin-3-glucoside, quercetin-3-O-glucoside]
[1]; Test Example 3
  sugar uptake-promoting activity (in words): as high as Example 4-1
[1]; [2]
  Relative fluorescence intensity: 2.26

## C[C@@H]1O[C@@H](OC[C@H]2O[C@@H](Oc3c(-c4ccc(O)c(O)c4)oc4cc(O)cc(O)c4c3=O)[C@H](O)[C@@H](O)[C@@H]2O)[C@H](O)[C@H](O)[C@H]1O [Rutin, rutin]
[1]; [2]
  Relative fluorescence intensity: 0.91

## insulin
[1]; Test Example 1-2, positive control 10 nM, no addition = 1.00
  Relative fluorescence intensity: 1.32
[1]; Test Example 2, positive control 10 nM, no addition = 1.00
  Relative fluorescence intensity: 1.25
[1]; Test Example 3, positive control 10 nM, control = 1.00
  Relative fluorescence intensity: 1.43
[1]; Test Example 4, positive control 10 nM, control = 1.00
  Relative fluorescence intensity: 1.62
[1]; Test Example 4, positive control 100 nM, control = 1.00
  Relative fluorescence intensity: 1.74
